Key:
[1] = tested on: Human ES cells (KhES-1); assay: Production of retinal pigment epithelium from human ES cell aggregates; format: cell-based; details: Matrigel and serum steps
Experimental: Human ES cells (KhES-1) were cultured according to the methods described in “Ueno, M. et al. PNAS 2006”, “Watanabe, K. et al. Nat Biotech 2007” and used for the experiment. As the medium, DMEM/F12 medium (Invitrogen) added with 20% KSR (Knockout Serum Replacement; Invitrogen), 0.1 mM 2-mercaptoethanol, 1 mM pyruvic acid, and 5 to 10 ng/ml bFGF was used. For the formation of retinal tissue by floating culture, the ES cells were dispersed into single cells by using 0.25% trypsin-EDTA (Invitrogen), suspended in a serum-free medium (100 μl) to 9×10^3 cells per well of a non-cell adhesive 96-well culture plate (SUMILON spheroid plate, SUMITOMO BAKELITE CO., LTD.) to allow for rapid formation of aggregates, and floating cultured at 37° C., 5% CO2. As the serum-free medium in this case, a serum-free medium obtained by adding 20% KSR, 0.1 mM 2-mercaptoethanol, 1 mM pyruvic acid, 20 μM Y27632 and a substance inhibiting the Wnt signal pathway (3 μM IWR1e) to G-MEM medium was used. Matrigel was added in an amount of 1/100 per volume from day 2 of the floating culture and floating culture was performed. The aggregate was transferred to a serum-free medium without containing a substance inhibiting the Wnt signal pathway on day 12 from the start of the floating culture, fetal calf serum in an amount of 1/10 per volume was added and cultured. […]

[2] = tested on: RAX::GFP knock-in human ES cells; assay: Production of optic-cup-like structure from human ES cell aggregates; format: cell-based; details: 3 μM CHIR99021 and 100 nM SAG together in serum-containing medium from day 15
Experimental: RAX::GFP knock-in human ES cells (derived from KhES-1) were cultured according to the methods described in “Ueno, M. et al. PNAS 2006”, “Watanabe, K. et al. Nat Biotech 2007” and used for the experiment. As the medium, DMEM/F12 medium (Invitrogen) added with 20% KSR (Knockout Serum Replacement; Invitrogen), 0.1 mM 2-mercaptoethanol, 1 mM pyruvic acid, and 5 to 10 ng/ml bFGF was used. For the formation of aggregate by floating culture, the ES cells were dispersed into single cells by using 0.25% trypsin-EDTA (Invitrogen), suspended in a serum-free medium (100 μl) to 9×10^3 cells per well of a non-cell adhesive 96-well culture plate (SUMILON spheroid plate, SUMITOMO BAKELITE CO., LTD.) to allow for rapid formation of aggregates, and floating cultured at 37° C., 5% CO2. As the serum-free medium in this case, a serum-free medium obtained by adding 20% KSR, 0.1 mM 2-mercaptoethanol, 1 mM pyruvic acid, 20 μM Y27632 and a substance inhibiting the Wnt signal pathway (3 μM IWR1e) to G-MEM medium was used. During the floating culture, Matrigel in an amount of 1/100 per volume was added from day 2 from the start of the floating culture. The floating aggregate was transferred to a serum-free medium without a substance inhibiting the Wnt signal pathway on day 12 from the start of the floating culture, fetal calf serum in an amount of 1/10 per volume was added and the aggregate was cultured. […]

Molecule: Activin A: substance acting on the Activin signal pathway; Recombinant Human/Mouse/Rat Activin A (R&D systems #338-AC)
- retinal pigment epithelia on aggregates (bright-field) ([1]; Activin A 100 ng/ml with 3 μM CHIR99021 from day 15, after IWR1e): almost all the surfaces of the aggregates were covered with retinal pigment epithelia

Molecule: Cc1c[nH]c(-c2cnc(NCCNc3ccc(C#N)cn3)nc2-c2ccc(Cl)cc2Cl)n1 [CHIR99021]
- retinal pigment epithelium on aggregates (bright-field) ([1]; 3 μM CHIR99021 from day 15, after IWR1e): emerged on almost all surfaces of the aggregates
- optic-cup-like structure formation on aggregate [2]: a clear optic-cup-like structure was formed
